# Test results: publication PMC7366380, “Discovery of a Potent and Selective Covalent Inhibitor and Activity-Based Probe for the Deubiquitylating Enzyme UCHL1, with Antifibrotic Activity” (Journal of the American Chemical Society, 2020)
# “And” between values parts separate entries of the source, which are not always exact repeats. Identical values can stand only once.
# Assays:
# Assay in all cases: In-cell proteome-wide competitive ABPP, HEK293: other DUBs and proteins
# [1] = biological target: T1, DUBs and other proteins in HEK293 cells (Homo sapiens, UniProt P40818); settings: for Log2 reporter intensity values: USP8: competition with ABP 2, DMSO substract (FC), replicates A-B; for Log2 reporter intensity values: USP8, DMSO subtracted
# T1 sequence (P40818 1-1118): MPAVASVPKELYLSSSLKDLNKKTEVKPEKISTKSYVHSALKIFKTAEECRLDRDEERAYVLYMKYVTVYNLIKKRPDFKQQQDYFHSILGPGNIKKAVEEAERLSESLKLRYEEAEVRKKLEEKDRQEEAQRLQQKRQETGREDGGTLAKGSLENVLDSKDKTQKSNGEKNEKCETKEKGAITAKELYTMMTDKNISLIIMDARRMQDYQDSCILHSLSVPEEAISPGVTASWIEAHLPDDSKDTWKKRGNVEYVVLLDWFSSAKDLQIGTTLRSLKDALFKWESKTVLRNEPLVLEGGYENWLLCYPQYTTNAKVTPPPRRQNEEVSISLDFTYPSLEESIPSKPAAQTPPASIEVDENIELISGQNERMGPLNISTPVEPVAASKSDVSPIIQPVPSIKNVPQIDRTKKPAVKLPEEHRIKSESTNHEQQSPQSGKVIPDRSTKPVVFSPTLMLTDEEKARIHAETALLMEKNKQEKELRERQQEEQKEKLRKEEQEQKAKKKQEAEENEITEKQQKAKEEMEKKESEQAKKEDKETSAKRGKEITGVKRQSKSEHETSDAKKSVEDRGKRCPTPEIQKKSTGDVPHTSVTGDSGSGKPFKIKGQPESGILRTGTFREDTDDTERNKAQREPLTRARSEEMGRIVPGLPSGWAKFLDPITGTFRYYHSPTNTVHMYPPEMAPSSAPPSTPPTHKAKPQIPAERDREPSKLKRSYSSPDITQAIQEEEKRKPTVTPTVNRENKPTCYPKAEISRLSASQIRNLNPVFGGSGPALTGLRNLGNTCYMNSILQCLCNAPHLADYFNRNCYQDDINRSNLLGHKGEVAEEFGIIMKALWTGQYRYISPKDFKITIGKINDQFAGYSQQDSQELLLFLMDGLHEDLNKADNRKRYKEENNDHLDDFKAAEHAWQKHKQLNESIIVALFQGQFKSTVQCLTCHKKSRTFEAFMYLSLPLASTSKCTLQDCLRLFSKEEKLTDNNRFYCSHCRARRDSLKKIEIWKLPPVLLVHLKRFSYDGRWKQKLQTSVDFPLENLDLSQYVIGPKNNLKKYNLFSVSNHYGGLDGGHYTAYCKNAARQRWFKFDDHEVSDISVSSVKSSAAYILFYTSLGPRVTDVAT
# [2] = biological target: DUBs and other proteins in HEK293 cells (Homo sapiens, UniProt P54578); settings: replicates A-C; for Log2 reporter intensity values: USP14: competition with ABP 2, DMSO substract (FC); for Log2 reporter intensity values: USP14, DMSO subtracted
# [3] = biological target: DUBs and other proteins in HEK293 cells (Homo sapiens, UniProt Q6P2Q9); settings: replicates A-C; for Log2 reporter intensity values: PRPF8: DMSO substract (FC); for Log2 reporter intensity values: PRPF8, DMSO subtracted
# [4] = biological target: T2, DUBs and other proteins in HEK293 cells (Homo sapiens, UniProt Q86UV5); settings: for Log2 reporter intensity values: USP48: DMSO substract (FC), replicates A-B; for Log2 reporter intensity values: USP48, DMSO subtracted
# T2 sequence (Q86UV5 1-1035): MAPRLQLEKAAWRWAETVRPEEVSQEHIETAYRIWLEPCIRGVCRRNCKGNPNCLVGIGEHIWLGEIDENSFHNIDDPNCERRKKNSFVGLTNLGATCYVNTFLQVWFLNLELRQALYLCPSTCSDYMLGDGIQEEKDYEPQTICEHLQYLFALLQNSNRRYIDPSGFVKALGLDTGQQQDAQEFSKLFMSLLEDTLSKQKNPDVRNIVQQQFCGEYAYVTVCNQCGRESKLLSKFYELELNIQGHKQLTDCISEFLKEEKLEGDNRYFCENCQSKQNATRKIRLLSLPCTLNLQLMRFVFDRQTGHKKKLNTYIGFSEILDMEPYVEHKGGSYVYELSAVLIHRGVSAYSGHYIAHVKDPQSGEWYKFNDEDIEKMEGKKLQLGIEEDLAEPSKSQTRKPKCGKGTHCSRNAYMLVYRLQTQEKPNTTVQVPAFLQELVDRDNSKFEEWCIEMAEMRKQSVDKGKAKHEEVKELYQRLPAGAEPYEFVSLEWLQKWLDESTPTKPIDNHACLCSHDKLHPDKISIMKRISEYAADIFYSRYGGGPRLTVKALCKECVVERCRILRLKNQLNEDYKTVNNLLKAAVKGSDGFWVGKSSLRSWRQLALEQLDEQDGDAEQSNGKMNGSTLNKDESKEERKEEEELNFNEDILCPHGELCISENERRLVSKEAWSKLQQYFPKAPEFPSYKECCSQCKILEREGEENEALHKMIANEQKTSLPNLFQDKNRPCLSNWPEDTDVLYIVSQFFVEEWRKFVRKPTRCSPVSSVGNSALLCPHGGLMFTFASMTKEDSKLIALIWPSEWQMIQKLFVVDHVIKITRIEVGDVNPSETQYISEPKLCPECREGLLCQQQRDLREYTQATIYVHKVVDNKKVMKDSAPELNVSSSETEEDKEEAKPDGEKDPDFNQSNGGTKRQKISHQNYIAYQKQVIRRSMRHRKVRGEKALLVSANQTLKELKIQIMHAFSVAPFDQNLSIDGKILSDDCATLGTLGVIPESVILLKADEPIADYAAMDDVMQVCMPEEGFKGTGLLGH
# [5] = biological target: DUBs and other proteins in HEK293 cells (Homo sapiens, UniProt Q92905); settings: for Log2 reporter intensity values, COPS5: TMT replicates; for Log2 reporter intensity values: COPS5: DMSO substract (FC); for Log2 reporter intensity values: COPS5 / Log2 reporter intensity values: replicates A-C; for Log2 t-test Difference / Log2 reporter intensity values: COPS5
# [6] = 3 at 1 μM, competition with ABP 2
# [7] = 3 at 4 μM, competition with ABP 2
# Chain of DUBs and other proteins in HEK293 cells (Homo sapiens, UniProt Q92905) (Q92905 whole entry): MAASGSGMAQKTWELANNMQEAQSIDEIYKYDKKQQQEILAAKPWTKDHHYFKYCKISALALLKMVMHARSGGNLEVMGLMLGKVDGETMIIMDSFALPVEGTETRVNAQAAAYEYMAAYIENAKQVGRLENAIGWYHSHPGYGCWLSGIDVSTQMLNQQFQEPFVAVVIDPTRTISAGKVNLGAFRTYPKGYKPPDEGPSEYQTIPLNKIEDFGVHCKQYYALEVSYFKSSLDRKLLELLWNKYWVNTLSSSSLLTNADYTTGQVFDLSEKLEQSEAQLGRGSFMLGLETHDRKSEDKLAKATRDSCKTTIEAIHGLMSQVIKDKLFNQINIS
# Chain of DUBs and other proteins in HEK293 cells (Homo sapiens, UniProt P54578) (P54578 whole entry): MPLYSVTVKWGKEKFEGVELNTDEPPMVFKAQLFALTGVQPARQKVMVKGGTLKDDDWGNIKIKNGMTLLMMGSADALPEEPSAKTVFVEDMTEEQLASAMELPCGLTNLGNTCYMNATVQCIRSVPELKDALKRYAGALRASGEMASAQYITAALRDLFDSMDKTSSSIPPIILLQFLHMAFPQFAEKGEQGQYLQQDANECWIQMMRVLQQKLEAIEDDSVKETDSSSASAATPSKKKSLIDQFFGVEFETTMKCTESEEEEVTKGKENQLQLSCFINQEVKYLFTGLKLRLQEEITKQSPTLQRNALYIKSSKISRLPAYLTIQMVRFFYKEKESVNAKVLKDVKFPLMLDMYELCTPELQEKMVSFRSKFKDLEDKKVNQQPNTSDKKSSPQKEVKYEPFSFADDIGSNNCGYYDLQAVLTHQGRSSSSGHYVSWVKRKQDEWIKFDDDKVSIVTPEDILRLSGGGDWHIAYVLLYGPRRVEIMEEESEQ
compound,measurement,setting,value
N#CN1CCC[C@@H]1C(=O)N1CCc2c(-c3c[nH]c4ncccc34)cccc21 [Compound 3],Log2 reporter intensity values: USP8,[1]; 3 at 1 μM,0.95 and 1.134
same,Log2 reporter intensity values: USP8,[1]; 3 at 4 μM,0.8355 and 0.9159
same,Log2 reporter intensity values,"[1]; 3_1 μM, replicates A-B (C NaN)",-0.05241 and 0.1313
same,Log2 reporter intensity values,"[1]; 3_4 μM, replicates A-B (C NaN)",-0.167 and -0.08651
same,Log2 reporter intensity values,"[1]; 3 at 1 μM, replicates A-C",-0.07394 and 0.1811
same,Log2 reporter intensity values,"[1]; 3 at 4 μM, replicates A-C",-0.2593 and -0.1267
same,Log2 reporter intensity values: USP14,[2]; 3 at 1 μM,1.142 and 1.077 and 1.079
same,Log2 reporter intensity values: USP14,[2]; 3 at 4 μM,1.079 and 1.198 and 1.16
same,Log2 reporter intensity values,[2]; 3_1 μM,0.1415 and 0.07672 and 0.07886
same,Log2 reporter intensity values,[2]; 3_4 μM,0.07915 and 0.1978 and 0.16
same,Log2 reporter intensity values,[2]; 3 at 1 μM,0.1912 and 0.1069 and 0.1098
same,Log2 reporter intensity values,[2]; 3 at 4 μM,0.1102 and 0.2606 and 0.2145
same,Log2 reporter intensity values: PRPF8,[3]; [6],0.9503 and 0.8885 and 0.9546
same,Log2 reporter intensity values: PRPF8,[3]; [7],0.9411 and 0.9829 and 0.9624
same,Log2 reporter intensity values,[3]; 3_1 μM,-0.0499 and -0.1118 and -0.04563
same,Log2 reporter intensity values,[3]; 3_4 μM,-0.05909 and -0.0173 and -0.03782
same,Log2 reporter intensity values,[3]; 3 at 1 μM,-0.07348 and -0.1706 and -0.06701
same,Log2 reporter intensity values,[3]; 3 at 4 μM,-0.08751 and -0.02483 and -0.05526
same,Log2 reporter intensity values: USP48,[4]; [6],1.063 and 0.8844
same,Log2 reporter intensity values: USP48,[4]; [7],0.8635 and 1.157
same,Log2 reporter intensity values,"[4]; 3_1 μM, replicates A-B (C NaN)",0.06169 and -0.1169
same,Log2 reporter intensity values,"[4]; 3_4 μM, replicates A-B (C NaN)",-0.1378 and 0.156
same,Log2 reporter intensity values,"[4]; 3 at 1 μM, replicates A-C",0.08809 and -0.1773
same,Log2 reporter intensity values,"[4]; 3 at 4 μM, replicates A-C",-0.2118 and 0.2108
same,"Log2 reporter intensity values, COPS5","[5]; 1 μM 3 (60 min) + 20 nM ABP 2 (10 min), All values",0.001825 and 0.1477 and 0.03353
same,"Log2 reporter intensity values, COPS5","[5]; 1 μM 3 (60 min) + 20 nM ABP 2 (10 min), DMSO subtracted",0.05994 and 0.2058 and 0.09165
same,"Log2 reporter intensity values, COPS5","[5]; 4 μM 3 (60 min) + 20 nM ABP 2 (10 min), All values",-0.03978 and -0.2063 and -0.1486
same,"Log2 reporter intensity values, COPS5","[5]; 4 μM 3 (60 min) + 20 nM ABP 2 (10 min), DMSO subtracted",0.01834 and -0.1481 and -0.09052
same,Log2 reporter intensity values: COPS5,[5]; [6],1.042 and 1.153 and 1.066
same,Log2 reporter intensity values: COPS5,[5]; [7],1.013 and 0.9024 and 0.9392
same,Log2 t-test Difference,[5]; 3 - 1 μM,-0.04319
same,Log2 t-test Difference,[5]; 3 - 4 μM,-0.2358
same,Log2 reporter intensity values,"[5]; 3_1 μM, DMSO subtracted",0.04234 and 0.1532 and 0.0655
same,Log2 reporter intensity values,"[5]; 3_4 μM, DMSO subtracted",0.01271 and -0.09767 and -0.0609
same,Log2 reporter intensity values,"[5]; 3 at 1 μM, DMSO subtracted",0.05994 and 0.2058 and 0.09165
same,Log2 reporter intensity values,"[5]; 3 at 4 μM, DMSO subtracted",0.01834 and -0.1481 and -0.09052
C#Cc1cnc2[nH]cc(-c3cccc4c3CCN4C(=O)[C@@H]3CCCN3C#N)c2c1 [Compound 2],Log2 reporter intensity values,[2]; 20 nM ABP 2,0.1674 and 0.2186 and 0.2005 and 0.1633 and 0.1489
same,Log2 reporter intensity values: PRPF8,[3]; 20 nM ABP 2 alone,0.8057 and 0.8767 and 0.8316
same,Log2 reporter intensity values,[3]; 20 nM ABP 2,-0.3117 and -0.1898 and -0.2661 and -0.1946 and -0.1687
same,Log2 reporter intensity values: USP48,[4]; 20 nM ABP 2 alone,0.9588 and 0.9788
same,Log2 reporter intensity values,"[4]; 20 nM ABP 2, replicates A-B (C NaN)",-0.04252 and -0.02245
same,Log2 reporter intensity values,"[4]; 20 nM ABP 2, replicates A-C",-0.06076 and -0.03088
same,"Log2 reporter intensity values, COPS5","[5]; 20 nM ABP 2 (10 min), no competitor, All values",0.09368 and -0.02632 and 0.2453
same,"Log2 reporter intensity values, COPS5","[5]; 20 nM ABP 2 (10 min), no competitor, DMSO subtracted",0.1518 and 0.03179 and 0.3034
same,Log2 reporter intensity values: COPS5,[5]; 20 nM ABP 2 alone,1.111 and 1.022 and 1.234
same,Log2 reporter intensity values,"[5]; 20 nM ABP 2, DMSO subtracted",0.1518 and 0.03179 and 0.3034 and 0.1109 and 0.0222 and 0.2339
same,Log2 t-test Difference,[5]; ABP 2 - 20 nM,0.1623
